Results taken from article PMC7999182, “Interaction of Remdesivir with Clinically Relevant Hepatic Drug Uptake Transporters” (Pharmaceutics, 2021).

Tests used:
[1] = biological target: T1, OATP1B1*15 (Homo sapiens, UniProt Q9Y6L6, N130D/V174A); test: Remdesivir uptake into HEK cells stably expressing OATP1B1*15 vs vector control; assay type: in vitro ADME; settings: 10 min
T1 construct: expressed in transfected cells
T1 sequence (Q9Y6L6 1-691 N130D/V174A): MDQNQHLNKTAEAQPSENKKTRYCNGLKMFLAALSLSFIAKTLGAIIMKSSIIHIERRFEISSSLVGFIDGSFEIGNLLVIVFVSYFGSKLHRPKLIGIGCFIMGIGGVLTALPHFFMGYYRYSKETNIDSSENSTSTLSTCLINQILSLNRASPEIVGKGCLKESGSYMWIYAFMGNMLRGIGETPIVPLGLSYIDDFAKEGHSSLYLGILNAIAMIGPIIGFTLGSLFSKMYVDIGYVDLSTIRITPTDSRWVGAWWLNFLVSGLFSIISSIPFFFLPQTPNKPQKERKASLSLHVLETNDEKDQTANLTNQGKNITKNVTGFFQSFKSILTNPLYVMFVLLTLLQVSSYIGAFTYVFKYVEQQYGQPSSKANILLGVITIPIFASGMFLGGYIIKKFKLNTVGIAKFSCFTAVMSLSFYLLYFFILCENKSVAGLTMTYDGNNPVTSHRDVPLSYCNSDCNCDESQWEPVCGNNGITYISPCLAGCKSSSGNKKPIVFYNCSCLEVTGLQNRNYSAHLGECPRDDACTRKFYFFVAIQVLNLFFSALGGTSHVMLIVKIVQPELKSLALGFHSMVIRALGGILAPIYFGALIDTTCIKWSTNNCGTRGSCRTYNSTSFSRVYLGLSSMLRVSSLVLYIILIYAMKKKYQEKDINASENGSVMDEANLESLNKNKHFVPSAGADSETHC
From the text: (§1) Generation, cultivation and characterization of human embryonic kidney (HEK) cells stably expressing OATP1B1 refseq (=OATP1B1*1a), OATP1B1*1b, OATP1B1*5 and OATP1B1*15 [18], OATP1B3 [19], OATP2B1 [13] and OCT1 [20] have been described previously. OATP1B1 cells were cultivated in minimal essential medium (Life Technologies, Paisley, UK) and OATP1B3, OATP2B1 and OCT1 cells were cultivated in Dulbecco’s modified Eagle medium (Sigma, Darmstadt, Germany). Cultivation media were supplemented with 10% fetal calf serum, 100 U/mL penicillin and 100 µg/mL streptomycin. Cells were grown at 37 °C and 5% CO2. Functionality of the cells was confirmed by measuring uptake of prototypic substrates (see Section 2.3 and supplementary material).
Uptake assays were conducted at 37 °C according to previously described methods. For this, cells were seeded in 24-well plates (320,000 cells/well) and cultured for 2 days. Cells were then incubated for a further 24 h in culture medium with 5 mM butyrate (OATP1B3, OATP2B1, OCT1) or 10 mM butyrate (OATP1B1) to increase protein levels of recombinant transporters. Before the uptake experiments, cells were washed with the respective pre-warmed (37 °C) uptake buffer. The compositions of the uptake buffers were as follows: for OATP1B1, OATP1B3, OATP2B1: 142 mM NaCl, 12.5 mM hydroxyethylpiperazine ethanesulfonic acid, 5 mM KCl, 1 mM KH2PO4, 1.5 mM CaCl2, 1.2 mM MgSO4, 5 mM glucose, pH 7.3; for OCT1: 145 mM NaCl, 5 mM hydroxyethylpiperazine ethanesulfonic acid, 3 mM KCl, 1 mM CaCl2, 0.5 mM MgCl2, 5 mM glucose, pH 7.4. Uptake was initiated by replacing this solution with uptake buffer containing different concentrations of remdesivir as indicated. […]
Remdesivir was determined by UHPLC-MS-MS analysis on an Agilent 1290 infinity UHPLC system coupled to an Agilent 6495B triple quadrupole mass spectrometer (Agilent, Waldbronn, Germany) similar to a recently published method. […]

[2] = biological target: T2, OCT1 (Homo sapiens, UniProt O15245); test: Inhibition of OCT1-mediated metformin uptake; assay type: cell-based
T2 construct: expressed in transfected cells
T2 sequence (O15245 1-554): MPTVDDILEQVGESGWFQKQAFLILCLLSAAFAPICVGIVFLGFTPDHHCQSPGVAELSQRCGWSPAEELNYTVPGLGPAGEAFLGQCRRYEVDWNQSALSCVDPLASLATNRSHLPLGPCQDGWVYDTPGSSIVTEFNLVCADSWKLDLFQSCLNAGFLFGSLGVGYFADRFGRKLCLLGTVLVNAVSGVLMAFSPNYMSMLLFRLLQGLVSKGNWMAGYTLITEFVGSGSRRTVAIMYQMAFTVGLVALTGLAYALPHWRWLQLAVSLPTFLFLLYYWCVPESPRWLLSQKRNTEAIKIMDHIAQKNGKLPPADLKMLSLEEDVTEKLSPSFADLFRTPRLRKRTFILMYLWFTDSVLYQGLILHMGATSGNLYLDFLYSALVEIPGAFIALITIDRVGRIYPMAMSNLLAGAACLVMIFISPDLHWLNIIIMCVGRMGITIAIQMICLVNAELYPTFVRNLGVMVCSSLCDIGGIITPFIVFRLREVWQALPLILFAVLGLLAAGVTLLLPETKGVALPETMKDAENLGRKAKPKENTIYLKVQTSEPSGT
From the text: as §1
Prototypic substrate uptake was performed as described previously. For this, uptake solutions contained the respective substrate with tracer amounts of radiolabeled substrate. In case of inhibition studies, uptake solutions additionally contained different concentrations of remdesivir. […] Cells were then lysed with 0.2% sodium dodecyl sulfate and intracellular radioactivity was measured by liquid scintillation counting (Tricarb2800, PerkinElmer Life Sciences GmbH, Rodgau, Germany or Hidex 300SL TDCR liquid scintillation counter, Turku, Finland). […]

CCC(CC)COC(=O)[C@H](C)N[P@](=O)(OC[C@H]1O[C@@](C#N)(c2ccc3c(N)ncnn23)[C@H](O)[C@@H]1O)Oc1ccccc1 [Remdesivir]
Uptake vs vector-transfected control cells ([1]; 0.5 µM remdesivir): significantly lower uptake
Accumulation vs vector-transfected control cells ([1]; 5 µM remdesivir): moderately higher
Accumulation vs vector-transfected control cells ([1]; 10 and 50 µM remdesivir): moderately higher
Effect on prototypic substrate uptake ([2]; 5 µM metformin, 5 min uptake, different remdesivir concentrations): significant concentration-dependent inhibitory effect
Transporter inhibition at 10 µM ([2]; 10 µM remdesivir, metformin as substrate): inhibition
